Literature values in patent publication US20160082159A1, “BALLOON SURFACE COATING” (priority 2013, published 2016).

Conditions: in humans

In the case of `CC(=O)O[C@H]1C(=O)[C@@]2(C)[C@H]([C@H](OC(=O)c3ccccc3)[C@]3(O)C[C@H](OC(=O)[C@H](O)[C@@H](NC(=O)c4ccccc4)c4ccccc4)C(C)=C1C3(C)C)[C@]1(OC(C)=O)CO[C@@H]1C[C@@H]2O` [paclitaxel], the “normal plasma half-life of paclitaxel” value is given as “approximately 60 min”.
